# Experimental data reported in US20240174695A1, “Spirocycle Containing Bicyclic Heteroaryl Compounds” (Protego Biopharma, Inc., priority 2022, published 2024).
# Tested on: Recombinant amyloidogenic full length light chain protein WIL-FL T46L
# Assay: Differential Scanning Fluorimetry Assay (thermal shift assay); further: test concentration or dose not given here
# Format: binding
# Conditions: Thermal Shift Protein Stability Kit (Biotium), 96-well plates; protein and compounds incubated at RT for 30 min before adding the dye
# Description: Differential Scanning Fluorimetry Assay
# The stabilization effects the compounds have on the immunoglobulin light chain protein were quantitively measured using a thermal shift assay. Recombinant amyloidogenic full length light chain protein WIL-FL T46L was produced in E. coli, purified, and used in the assay. The Thermal Shift Protein Stability Kit from Biotium was used and the assay was done in 96-well plates following the manufacturer's instructions. The protein and compounds were incubated at RT for 30 min before adding the dye and subjected to the thermal shift assay. The thermal stability (Tm) of each sample was then determined using standard curve fitting methods and compared to vehicle. Data are expressed as temperature shift: [Tm]compound−[Tm]vehicle.
# Results • 0-0.5° C.=* • >0.5-1° C.=** • >1-1.5° C.=*** • >1.5-2.5° C.=**** • >2.5° C.=*****
row,SMILES,DSF temperature shift: [Tm]compound−[Tm]vehicle
1,Cc1cc(OC[C@H](C)c2ccccc2)cn2nc(C(O)CN3CC4(CN(c5ccnc(S(C)(=N)=O)c5)C4)NC3=O)nc12 (stereo partly shown) [Compound 82],**** (>1.5-2.5° C.=****)
2,Cc1cc(OC[C@H](C)c2ccccc2)cn2nc(CCN3CC4(CCN(c5ccnc(O)c5)CC4)NC3=O)nc12 [Compound 105],***** (>2.5° C.=*****)
3,Cc1cc(OCC2(c3ccccc3)CC2)cn2nc(C(O)CN3CC4(CCN(c5ccnnc5)CC4)NC3=O)nc12 (stereo not shown) [Compound 47],**** (>1.5-2.5° C.=****)
4,Cc1cc(OC[C@H](C)c2ccccc2)cn2nc(C(O)CN3CC4(CCN(c5cccc(O)n5)CC4)NC3=O)nc12 (stereo partly shown) [Compound 72],**** (>1.5-2.5° C.=****)
5,CCC1(c2ccccc2)CCN(c2cc(C)c3nc(CCN4CC5(CCN(c6nccn7ccnc67)CC5)NC4=O)nn3c2)C1 (stereo not shown) [Compound 5],***** (>2.5° C.=*****)
6,"Cc1cc(OCC2(c3ccccc3)CC2)cn2nc(C(O)CN3CC4(CCN(C(=O)c5nncn5C)CC4)NC3=O)nc12 (stereo not shown) [Compound 30, 3-(2-hydroxy-2-(8-methyl-6-((1-phenylcyclopropyl)methoxy)-[1,2,4]triazolo[1,5-a]pyridin-2-yl)ethyl)-8-(4-methyl-4H-1,2,4-triazole-3-carbonyl)-1,3,8-triazaspiro[4.5]decan-2-one]",**** (>1.5-2.5° C.=****)
7,Cc1cc(OC[C@H](C)c2ccccc2)cn2nc(CCN3CC4(CCN(c5nccnc5F)CC4)NC3=O)nc12 [Compound 117],**** (>1.5-2.5° C.=****)
8,Cc1cc(OCC2(c3ccccc3)CC2)cn2nc(C(O)CN3CC4(CCN(C(=O)Cn5nnnc5C)CC4)NC3=O)nc12 (stereo not shown) [Compound 34],**** (>1.5-2.5° C.=****)
9,Cc1cc(OC[C@H](C)c2ccccc2)cn2nc(CCN3CC4(CCN(c5nccn6cncc56)CC4)NC3=O)nc12 [Compound 63],**** (>1.5-2.5° C.=****)
10,Cc1cc(OC[C@H](C)c2ccccc2)cn2nc(C(=O)CN3CC4(CCN(c5nccn6cnnc56)CC4)CC3=O)nc12 [Compound 64],**** (>1.5-2.5° C.=****)
11,Cc1cc(OC[C@H](C)c2ccccc2)cn2nc(CCN3CC4(CCN(C(=O)c5ncccn5)CC4)NC3=O)nc12 [Compound 91],**** (>1.5-2.5° C.=****)
12,Cc1cc(OC[C@H](C)c2ccccc2)cn2nc(CCN3CC4(CCN(c5cc(Cl)nc(S(C)(=O)=O)n5)CC4)NC3=O)nc12 [Compound 99],**** (>1.5-2.5° C.=****)
13,Cc1nsc(N2CCC3(CC2)CN(CC(O)c2nc4c(C)cc(OCC5(c6ccccc6)CC5)cn4n2)C(=O)N3)n1 (stereo not shown) [Compound 51],***** (>2.5° C.=*****)
14,COc1cc(N2CCC3(CC2)CN(CC(O)c2nc4c(C)cc(OCC5(c6ccccc6)CC5)cn4n2)C(=O)N3)ccn1 (stereo not shown) [Compound 142],***** (>2.5° C.=*****)
15,Cc1cc(N2CCC3(CC2)CN(CCc2nc4c(C)cc(OC[C@H](C)c5ccccc5)cn4n2)C(=O)N3)ccn1 [Compound 98],***** (>2.5° C.=*****)
16,Cc1cc(OC[C@H](C)c2ccccc2)cn2nc(CCN3CC4(CCN(c5ncc(F)cn5)CC4)NC3=O)nc12 [Compound 113],***** (>2.5° C.=*****)
17,Cc1nc(F)ccc1N1CCC2(CC1)CN(CCc1nc3c(C)cc(OC[C@H](C)c4ccccc4)cn3n1)C(=O)N2 [Compound 101],** (>0.5-1° C.=**)
18,CC[C@@]1(c2ccccc2)CCN(c2cc(C)c3nc(CCN4CC5(CCN(c6nccn7cncc67)CC5)NC4=O)nn3c2)C1 [Compound 7],***** (>2.5° C.=*****)
19,Cc1ccc(N2CCC3(CC2)CN(CC(O)c2nc4c(C)cc(OCC5(c6ccccc6)CC5)cn4n2)C(=O)N3)cn1 (stereo not shown) [Compound 128],**** (>1.5-2.5° C.=****)

row,SMILES,DSF temperature shift: [Tm]compound−[Tm]vehicle
1,CC(=O)N1CCC(N2CCC3(CC2)CN(CC(O)c2nc4c(C)cc(OCC5(c6ccccc6)CC5)cn4n2)C(=O)N3)CC1 (stereo not shown) [Compound 15],*** (>1-1.5° C.=***)
2,COc1ncccc1N1CCC2(CC1)CN(CCc1nc3c(C)cc(OC[C@H](C)c4ccccc4)cn3n1)C(=O)N2 [Compound 139],*** (>1-1.5° C.=***)
3,CC[C@]1(c2ccccc2)CCN(c2cc(C)c3nc(CCN4CC5(CCN(c6nccn7cncc67)CC5)NC4=O)nn3c2)C1 [Compound 6],***** (>2.5° C.=*****)
4,Cc1cc(OC[C@H](C)c2ccccc2)cn2nc(CCN3CC4(CCN(c5ncccn5)CC4)NC3=O)nc12 [Compound 115],**** (>1.5-2.5° C.=****)
5,CNC(=O)c1cc(N2CCC3(CC2)CN(CC(O)c2nc4c(C)cc(OCC5(c6ccccc6)CC5)cn4n2)C(=O)N3)ccn1 (stereo not shown) [Compound 133],***** (>2.5° C.=*****)
6,Cc1cc(OCC2(c3ccccc3)CC2)cn2nc(C(O)CN3CC4(CCN(c5ccnc(F)n5)CC4)NC3=O)nc12 (stereo not shown) [Compound 44],***** (>2.5° C.=*****)
7,Cc1nc(N2CCC3(CC2)CN(CCc2nc4c(C)cc(OC[C@H](C)c5ccccc5)cn4n2)C(=O)N3)ns1 [Compound 124],**** (>1.5-2.5° C.=****)
8,Cc1cc(OC[C@H](C)c2ccccc2)cn2nc(C(O)CN3CC4(CCN(c5ccnc(O)c5)CC4)NC3=O)nc12 (stereo partly shown) [Compound 74],**** (>1.5-2.5° C.=****)
9,Cc1cc(OC[C@H](C)c2ccccc2)cn2nc(C(O)CN3CC4(CCN(c5cnccn5)CC4)NC3=O)nc12 (stereo partly shown) [Compound 78],***** (>2.5° C.=*****)
10,Cc1cc(OCC(C)c2ccccc2)cn2nc(CCN3CC4(CCN(c5nccn6cnnc56)CC4)NC3=O)nc12 (stereo not shown) [Compound 13],***** (>2.5° C.=*****)
11,C[C@]1(c2ccccc2)CCN(c2cc(CO)c3nc(C(O)CN4CC5(CN(c6ccnc(O)c6)C5)NC4=O)nn3c2)C1 (stereo partly shown) [Compound 146],***** (>2.5° C.=*****)
12,Cc1cc(OC[C@H](C)c2ccccc2)cn2nc(CCN3CC4(CCN(c5ncc(F)cn5)CC4)OC3=O)nc12 [Compound 114],*** (>1-1.5° C.=***)
13,COC(=O)c1cccc(N2CC3(CN(CCc4nc5c(C)cc(OC[C@H](C)c6ccccc6)cn5n4)C(=O)N3)C2)n1 [Compound 135],***** (>2.5° C.=*****)
14,Cc1cc(OC[C@H](C)c2ccccc2)cn2nc(C(O)CN3CC4(CCN(C5CCNC(=O)C5)CC4)NC3=O)nc12 (stereo partly shown) [Compound 79],**** (>1.5-2.5° C.=****)
15,Cc1cc(OCC2(c3ccccc3)CC2)cn2nc(C(O)CN3CC4(CCN(c5ccc(F)nn5)CC4)NC3=O)nc12 (stereo not shown) [Compound 43],**** (>1.5-2.5° C.=****)
16,Cc1cc(OC[C@H](C)c2ccccc2)cn2nc(CCN3CC4(CCN(c5ncn(C)n5)CC4)NC3=O)nc12 [Compound 120],**** (>1.5-2.5° C.=****)
17,Cc1cc(OC[C@H](C)c2ccccc2)cn2nc(C(C)(O)CN3CC4(CCN(C(=O)c5nncn5C)CC4)NC3=O)nc12 (stereo partly shown) [Compound 65],**** (>1.5-2.5° C.=****)
18,Cc1cc(OC[C@H](C)c2ccccc2)cn2nc(CCN3CC4(CCN(C(=O)c5nncn5C)CC4)NC3=O)nc12 [Compound 93],**** (>1.5-2.5° C.=****)
